Laboratory results reported in patent publication US20080305100A1, “Activated Protein C Inhibits Undesirable Effects of Plasminogen Activator in the Brain” (priority 2004, published 2008).

What was measured:
[1] = tested on: caspase-3; test: Caspase-3 activity in BEC lysate; assay type: cell-based, human; details: for inhibition in caspase-3 activation in hypoxic BEC: absence of tPA; for inhibition in caspase-3 activation in hypoxic BEC / inhibition of caspase-3 activation in hypoxic BEC: z-IETD-fmk 10 μM, z-LEHD-fmk 15 μM applied 2 hr prior; for inhibition of caspase-3 activation in hypoxic BEC: presence of tPA; for increase in caspase-3 activity compared to hypoxia alone: tPA plus hypoxia
Procedure: (§1) Primary human BEC were isolated from rapid autopsies from neurologically normal young individuals after trauma and cultured as we have previously described^20. Cells were maintained in serum-free Dulbeco's Modified Eagle Medium and exposed for 1 hr to 16 hr to tPA (20 μg/ml) under normoxic conditions (20% oxygen, 5 mM glucose), hypoxia (<2% oxygen, no glucose), or to tPA plus hypoxia. Hypoxia was induced using an anaerobic chamber (Form a Scientific, Holbrook, N.Y.)^20. The levels of O2 were monitored by O2 Fyrite (Form a Scientific). z-IETD-fmk (10 μM) or z-LEHD-fmk (15 μM) was applied 2 hr prior to tPA/hypoxia treatment. Human APC (10 nM to 600 nM) was added at the time of tPA/hypoxia treatment. Caspase-3, -8 or -9 activity was determined in the presence of 400 nM APC.
(§2) BEC or cortical neuron lysate was incubated at 37° C. with caspase-3 (DEVD-pNA), caspase-8 (IETD-pNA) (ApoAlert caspase assay kit; Clontech, Palo Alto, Calif.), or caspase-9 (Ac-LEHD-pNA; Chemicon; Temecula, Calif.) substrate. Substrate hydrolysis was determined as absorbance change at 405 nm in a microplate reader^23. Enzymatic activity was expressed in arbitrary units per mg of protein.

[2] = tested on: caspase-8; test: Caspase-8 activity in cortical neuron lysate; assay type: cell-based, mouse; details: for tPA-induced increase in caspase-8 activation: tPA/NMDA treated neurons, APC 20 nM, z-IETD-fmk 20 μM, z-LEHD-fmk 5 μM
Procedure: (§3) Primary neuronal cultures were prepared from fetal C57BU6J mice as we have previously described^23. Cultures were maintained in serum-free NEUROBASAL medium plus B27 supplement (Gibco BRL, Rockville, Md.) in a humidified 5% CO2 incubator at 37° C. for 14 days before 3 hr to 24 hr treatment with tPA (20 μg/ml) alone, NMDA (25 μM)/5 μM glycine, or tPA plus NMDA. Ac-DEVD-CHO (50 μM), z-IETD-fmk (20 μM), or z-LEHD-fmk (5 μM) was applied 3 hr prior to tPA/NMDA treatment. Mouse recombinant APC (20 nM) was added 30 min before tPA/NMDA treatment.
as §2

[3] = tested on: AIF; test: Western blot of AIF in nuclear extracts of NMDA/tPA treated neurons; assay type: cell-based, mouse; details: for AIF nuclear translocation in the presence of tPA (NMDA/tPA injury): effect of APC or caspase inhibitor
Procedure: as §3
(§4) Whole cellular extracts, nuclear proteins, or cell membrane fractions were prepared as we have previously described^23. The relative abundance of each protein was determined by scanning densitometry using β-actin as an internal control. Data from multiple Western blots (n=3-5) were averaged for statistical analysis.

[4] = tested on: mouse cortical neurons; test: tPA/NMDA-induced apoptosis in neurons; assay type: cell-based
Procedure: as §3
(§5) Cell injury in BEC was detected by the release of LDH (LDH assay, Sigma). The Hoechst dye (Hoechst 33,342, Sigma) and in situ terminal deoxynucleotidyl transferase-mediated digoxigenin-dUTP nick-end labeling (TUNEL) (Phoenix Flow Systems, San Diego, Calif.) assays were performed on acetone-fixed BEC or paraformaldexyde-fixed neurons. Images were visualized using a Nikon TE2000-U microscope.

[5] = tested on: human BEC; test: tPA/hypoxia in human BEC: apoptosis (TUNEL); assay type: cell-based
Procedure: as §1, §5

[6] = biological target: T1, NR1 or the NR2A subunit of the NMDA receptor (Mus musculus, UniProt P35436+P35438); test: Western blot of NR1 and NR2A subunits in membrane fractions after tPA; assay type: cell-based; details: 24 h after treatment with tPA
T1 construct: Western blot analysis of NR1 and NR2A subunits in membrane fractions 24 h after treatment with tPA; endogenous in cells; host or cells: primary cortical neurons from fetal C57BL/6J mice
Procedure: as §3, §4

[7] = tested on: caspase-8; test: Caspase-8 activity in BEC lysate; assay type: cell-based, human; details: tPA plus hypoxia, at 1 hr; remained elevated over 16 hr vs hypoxia alone
Procedure: as §1, §2

[8] = tested on: human BEC; test: tPA/hypoxia in human BEC: cell injury by LDH release; assay type: cell-based; details: for LDH release into the medium from ischemic BEC: tPA 20 μg/ml plus hypoxia/aglycemia
Procedure: as §1, §5

[9] = tested on: caspase-9; test: Caspase-9 activity in cortical neuron lysate; assay type: cell-based, mouse
Procedure: as §3, §2

[10] = tested on: MMP-9; test: MMP gelatin zymography of BEC conditioned medium; assay type: cell-based, human; details: tPA 20 μg/ml, hypoxic BEC, 4 hr
Procedure: The conditioned medium from BEC exposed to tPA (20 μg/ml) or hypoxia for 4 hr, in the absence or presence of human APC (50 nM to 1,000 nM), was analyzed by gelatin zymography as previously described^11. […] MMP-9 activity was quantified as fold increase compared with normoxic controls.

[11] = tested on: p53, Bax, Bcl-2; test: Western blot of p53, Bcl-2 and Bax in NMDA-treated neurons; assay type: cell-based, mouse; details: tPA plus NMDA vs NMDA
Procedure: as §3, §4

[12] = tested on: mouse stroke model; test: In vivo stroke model (45 min MCA occlusion/24 hr reperfusion); details: tPA 10 mg/kg iv
Procedure: Protocols were approved by the Animal Care Committee at the University of Rochester using National Institutes of Health guidelines. Vehicle, tPA (10 mg/kg, 10% bolus/90% infusion), or tPA plus mouse recombinant APC (0.02 mg/kg to 1 mg/kg, 50% bolus/50% infusion) were administered via the femoral vein using separate intravenous lines and our previously described mouse stroke model^19,20 modified to 45 min MCA occlusion/24 hr reperfusion. tPA was infused during the last 10 min of MCA occlusion and for 20 min into reperfusion. APC was infused either simultaneously with tPA, after tPA infusion, or before tPA infusion. The dose of tPA used here has been frequently used in rodents and is considered to be equivalent to the therapeutic dose in humans^12,13,44,50. CBF was monitored by laser Doppler flowmetry (Transonic Systems)^19. Arterial blood gasses were measured^19. Neurological examinations were performed at 24 hr and scored: no neurological deficit (O), failure to extend left forepaw fully (1), turning to left (2), circling to left (3), unable to walk spontaneously (4), or stroke-related death (5). Neuropathological analysis was performed at 24 hr. Unfixed 1-mm coronal brain slices at the level of optic chiasm were incubated in 2% triphenyltetrazolium chloride in phosphate buffer (pH 7.4). Brain injury, infarct, and edema volumes were determined as previously described^19,20. Fibrin deposition was quantified by Western blotting with anti-fibrin II antibody (1:500, NYB-T2G1; Accurate Chemical Scientific Corp.)^19,20,30 and leukocytes were stained with CD11b antibody (1:250, DAKO Corp.)^19,20. Hemoglobin was determined by a spectrophotometric assay using Drabkin's reagent (Sigma) as we have previously described^19.

[13] = tested on: caspase-9; test: Caspase-9 activity in BEC lysate; assay type: cell-based, human; details: tPA 20 μg/ml plus hypoxia
Procedure: as §1, §2

[14] = tested on: caspase-3; test: Caspase-3 activity in cortical neuron lysate; assay type: cell-based, mouse
Procedure: as §3, §2

## z-IETD-fmk
[1]
  inhibition in caspase-3 activation in hypoxic BEC: less than 15%
  inhibition of caspase-3 activation in hypoxic BEC: greater than 95%
[2]
  tPA-induced increase in caspase-8 activation: abolished
[3]
  AIF nuclear translocation in the presence of tPA (NMDA/tPA injury): blocked
[4]; discussion summary
  tPA-induced apoptosis in NMDA-treated neurons: abolished
[5]; discussion summary
  tPA-induced apoptosis in ischemic BEC: abolished

## Ac-DEVD-CHO
[3]
  AIF nuclear translocation in the presence of tPA (NMDA/tPA injury): blocked

## tPA: Human recombinant tPA (alteplase, Genentech); in some in vitro studies human recombinant tPA from Sigma
[6]
  proteolytic effect on the NMDA receptor (NR1, NR2A subunit): failed to cleave
[7]
  activation of caspase-8 in ischemic BEC: early and sharp increase
[8]; 2 hr, background values in the absence of tPA
  LDH release into the medium from ischemic BEC: 50%
[8]; 4 hr, 57% in the absence of tPA
  LDH release into the medium from ischemic BEC: 95%
[8]; tPA alone, normoxia
  LDH release from normoxic BEC: did not affect
[1]; at 4 hr
  increase in caspase-3 activity compared to hypoxia alone: 2.8 fold
[1]; within 16 hr
  increase in caspase-3 activity compared to hypoxia alone: > 3.0 fold
[2]; tPA 20 μg/ml plus NMDA 25 μM
  caspase-8 in neurons, tPA/NMDA compared to NMDA alone: robust activation
[2]; tPA alone, no NMDA
  activation of caspase-8: did not affect
[3]; tPA plus NMDA vs NMDA
  increase of nuclear translocation of AIF in the presence of NMDA: 50%
[9]; tPA 20 μg/ml plus NMDA 25 μM
  caspase-9 activation, tPA/NMDA compared to NMDA alone: did not alter
[9]; tPA alone, no NMDA
  activation of caspase-9: did not affect
[10]
  potentiation of hypoxia-induced MMP-9 activation: about 2.0 fold
[11]
  NMDA-mediated increases in p53 and Bax expression, decrease in Bcl-2 expression: did not affect
[12]
  improvement of post-ischemic cerebral blood flow (CBF) vs vehicle: 35%
  increase in the level of hemoglobin in the ischemic hemisphere: greater than 3.0 fold
  ischemic brain fibrin deposition: background level
[12]; 24 hr reperfusion
  increase of volume of edema compared to controls: 155%
  increase of volume of infarction compared to controls: 75%
  volume of cerebral injury compared to controls: almost doubled
[12]; 24 hr, controls 2.3, scale 0-5
  motor neurological score: 3.5
[12]; CD11b-positive leukocytes
  increase of brain accumulation of leukocytes: about 65%
[12]; MCA stroke model
  mice with substantial hemorrhage: 6/6
[4]; tPA 20 μg/ml, 24 hr after exposure to NMDA, vs NMDA alone
  number of apoptotic neurons: doubles
[4]; tPA alone, no NMDA
  effect on neuronal cells: did not affect
[13]
  caspase-9 activity in hypoxic BEC relative to hypoxia alone: did not produce a significant increase
[5]; tPA plus hypoxia, 4 hr, 60% for hypoxia alone
  number of TUNEL-positive hypoxic BEC: 100%
[14]; tPA 20 μg/ml plus NMDA 25 μM
  caspase-3 activation relative to NMDA alone: increased
[14]; tPA alone, no NMDA
  activation of caspase-3: did not affect

## z-LEHD-fmk
[1]
  inhibition in caspase-3 activation in hypoxic BEC: greater than 85%
  inhibition of caspase-3 activation in hypoxic BEC: only slightly inhibited
[2]
  tPA-induced increase in caspase-8 activation: without effect
[3]
  AIF nuclear translocation in the presence of tPA (NMDA/tPA injury): much less effective
[14]; NMDA alone, no tPA, z-LEHD-fmk 5 μM
  reduction of caspase-3 activation in cells treated with NMDA alone: greater than 80%
